Data set [1] deals with Capan-1/AZD2281 drug resistant cell. In words: cells. The settings on record: Homo sapiens.
In another data set the test system is HCT-15 (colon cancer). In words: Proliferation of different tumor cells: HCT-15. As to conditions: for IC50: Homo sapiens.
For the next data set, the system named is SW-620 (colon cancer). As to the kind of experiment: Proliferation of different tumor cells: SW-620. As to conditions: for IC50: Homo sapiens.
The subject of data set [2] is Capan-1 (pancreatic cancer). In words: Proliferation of different tumor cells: Capan-1. As to conditions: Homo sapiens.
In the next data set the test system is HCC-1937 (breast cancer). In words: Proliferation of different tumor cells: HCC-1937. The settings on record: for IC50: Homo sapiens, HCC1937.
The subject of data set [3] is UWB1.289 (ovarian cancer). As to the kind of experiment: Proliferation of different tumor cells: UWB1.289. As to conditions: for IC50: UWB1289.
The test system of a further data set is Capan-1 parental cell. As to the kind of experiment: Anti-proliferative effect on Capan-1 parental cell. The settings on record: Homo sapiens.
In data set [4] the test system is Capan-1 cells (BRCA2 gene defect). In words: Inhibition of proliferation of Capan-1 cells (CCK-8 and SRB method). The settings on record: Homo sapiens, CAPAN-1, read-out: Cellular IC50 (nM) Capan-1 (BRCA2gene defect). A general note: Tetrazolium dyes change colour on reduction, which living cells bring about.
Data set [5] concerns MDA-MB-436 cells (BRCA1 gene defect). As to the kind of experiment: Inhibition of proliferation of MDA-MB-436 cells (CCK-8 and SRB method). The settings on record: Homo sapiens, MDA-MB-436, read-out: Cellular IC50 (nM) MDA-MB-436 (BRCA1gene defect).
In the next data set the target is PARP-1 (Homo sapiens (Human), UniProt P09874). The settings on record: PARP-1 enzyme.
For data set [6] the following is noted: background statement; cited from earlier work.

Structures are written as SMILES.

Sequence of PARP-1 (P09874 whole entry): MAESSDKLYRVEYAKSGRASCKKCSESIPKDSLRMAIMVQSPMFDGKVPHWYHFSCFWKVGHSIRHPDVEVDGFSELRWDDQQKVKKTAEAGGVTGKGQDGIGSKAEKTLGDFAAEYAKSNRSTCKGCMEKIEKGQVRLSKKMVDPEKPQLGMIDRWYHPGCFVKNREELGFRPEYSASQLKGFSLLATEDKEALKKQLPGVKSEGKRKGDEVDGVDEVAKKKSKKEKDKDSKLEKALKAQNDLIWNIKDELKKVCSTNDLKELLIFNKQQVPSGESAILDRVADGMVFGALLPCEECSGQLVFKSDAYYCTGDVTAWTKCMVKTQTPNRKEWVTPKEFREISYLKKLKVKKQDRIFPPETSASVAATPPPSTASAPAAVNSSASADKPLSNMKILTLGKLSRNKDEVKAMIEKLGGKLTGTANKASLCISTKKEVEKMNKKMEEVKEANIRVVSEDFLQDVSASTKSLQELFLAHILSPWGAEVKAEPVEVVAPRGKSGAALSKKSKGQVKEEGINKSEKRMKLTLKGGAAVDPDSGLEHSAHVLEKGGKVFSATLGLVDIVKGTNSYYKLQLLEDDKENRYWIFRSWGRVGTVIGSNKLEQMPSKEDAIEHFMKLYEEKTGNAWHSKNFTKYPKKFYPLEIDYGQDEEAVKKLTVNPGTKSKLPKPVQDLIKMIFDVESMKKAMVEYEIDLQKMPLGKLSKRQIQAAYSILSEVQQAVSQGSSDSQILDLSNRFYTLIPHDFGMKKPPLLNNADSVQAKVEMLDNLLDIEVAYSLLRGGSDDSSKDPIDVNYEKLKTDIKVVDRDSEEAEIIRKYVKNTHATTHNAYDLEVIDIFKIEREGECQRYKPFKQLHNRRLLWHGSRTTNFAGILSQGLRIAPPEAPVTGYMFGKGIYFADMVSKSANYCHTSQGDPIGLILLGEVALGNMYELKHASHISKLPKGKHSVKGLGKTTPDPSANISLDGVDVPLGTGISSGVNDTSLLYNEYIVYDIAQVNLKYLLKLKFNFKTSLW

With `CC1CN(C(=O)c2cc(Cc3n[nH]c(=O)c4ccccc34)ccc2F)Cc2nnc(-c3ccccn3)n21` (stereo not drawn) [Compound S13], the IC50 in [1] is less than 0.256 nM; with HCT-15 (colon cancer) it was 143 nM; in the data set on SW-620 (colon cancer) it was 45 nM; in data set [2], 1.04 nM; with HCC-1937 (breast cancer), 21.9 nM; in data set [3] it was 3 nM. Further, the results for the IC50 (with Capan-1 parental cell; in [4]; in data set [5]) were less than 0.256 nM, less than 5 nM and less than 5 nM, respectively. The “Ratio IC50 AZD/IC50 S13” value is 70 in the data set with HCT-15 (colon cancer), 130 with SW-620 (colon cancer), 338 with HCC-1937 (breast cancer) (HCC-1937) and 59 in [3] (UWB1.289).

Turning to `CC1CN(C(=O)c2cc(Cc3n[nH]c(=O)c4ccccc34)ccc2F)Cc2nnc(-c3cnccn3)n21` (stereo not drawn) [Compound S20], the IC50 in data set [4] and in data set [5] was less than 20 nM in each case.

On to `CC1CN(C(=O)c2cc(Cc3n[nH]c(=O)c4ccccc34)ccc2F)Cc2nnc(-c3ccsc3)n21` (stereo not drawn) [Compound S12], for which the concentration for half-maximal inhibition (IC50) in data set [4] and in data set [5] was less than 20 nM in each case.

As for `CC1CN(C(=O)c2cc(Cc3n[nH]c(=O)c4ccccc34)ccc2F)Cc2nnc(C3CCNCC3)n21` (stereo not drawn) [Compound S3], the IC50 in data set [4] and in data set [5] was less than 200 nM throughout.

Take `CC1CN(C(=O)c2cc(Cc3n[nH]c(=O)c4ccccc34)ccc2F)Cc2nnc(-c3cccs3)n21` (stereo not drawn) [Compound S7]: the IC50 in data set [4] and in data set [5] was less than 5 nM throughout.

On to `CC1CN(C(=O)c2cc(Cc3n[nH]c(=O)c4ccccc34)ccc2F)Cc2nnc(-c3ccc(CO)o3)n21` (stereo not drawn) [Compound S18], for which the half-maximal inhibitory concentration (IC50) in data set [4] and in [5] was less than 5 nM each time.

As to `CC1CN(C(=O)c2cc(Cc3n[nH]c(=O)c4ccccc34)ccc2F)Cc2nnc(-c3ncc[nH]3)n21` (stereo not drawn) [Compound S9], the values for the IC50 in data set [4] and in [5] were less than 20 nM and less than 5 nM, respectively.

`CC1CN(C(=O)c2cc(Cc3n[nH]c(=O)c4ccccc34)ccc2F)Cc2nnc(-c3nccs3)n21` (stereo not drawn) [Compound S15]: the IC50 in data set [4] and in data set [5] was less than 5 nM in each case.

Regarding `C[C@@H]1CN(C(=O)c2cc(Cc3n[nH]c(=O)c4ccccc34)ccc2F)Cc2nnc(-c3ccccn3)n21` [S13-(+)], the “activity of (+)-S13 relative to (−)-S13” value at PARP-1 is on record as “twice”.

For the molecule `CC1CN(C(=O)c2cc(Cc3n[nH]c(=O)c4ccccc34)ccc2F)Cc2nnc(-c3ncccc3F)n21` (stereo not drawn) [Compound S33], the half-inhibitory concentration (IC50) in [4] and in data set [5] was less than 20 nM in each case.

In the case of `CC1CN(C(=O)c2cc(Cc3n[nH]c(=O)c4ccccc34)ccc2F)Cc2nnc(-c3ccco3)n21` (stereo not drawn) [Compound S16], the IC50 in data set [4] and in [5] was less than 5 nM in each case.

Take `CC1CN(C(=O)c2cc(Cc3n[nH]c(=O)c4ccccc34)ccc2F)Cc2nnc(-c3nccn3C)n21` (stereo not drawn) [Compound S10]: the IC50 in data set [4] and in [5] was less than 20 nM throughout.

For `O=C(c1cc(Cc2n[nH]c(=O)c3ccccc23)ccc1F)N1CCN(C(=O)C2CC2)CC1` [AZD2281, olaparib, reference compound], the IC50 in [1] is 41100 ± 1590 nM; with HCT-15 (colon cancer) it was greater than 10000 nM; in the data set on SW-620 (colon cancer) it was 5840 nM; in data set [2] it was 653 nM; in the data set on HCC-1937 (breast cancer) it was 7390 nM; in data set [3], 177 nM. Moreover, the values for the IC50 (in the data set on Capan-1 parental cell; in data set [4]; in [5]) were 2899 ± 17 nM, roughly 500 nM and roughly 200 nM, respectively. Moreover, the bioavailability in data set [6] is less than 15%. Also, the “in vivo action time and half-life time” value in [6] is less than 1 h.

Turning to `CC1CN(C(=O)c2cc(Cc3n[nH]c(=O)c4ccccc34)ccc2F)Cc2nnc(-c3cncs3)n21` (stereo not drawn) [Compound S11], the IC50 in data set [4] and in [5] was less than 20 nM in each case.

On to `CC1CN(C(=O)c2cc(Cc3n[nH]c(=O)c4ccccc34)ccc2F)Cc2nnc(-c3c[nH]cn3)n21` (stereo not drawn) [Compound S8], for which the IC50 in data set [4] and in data set [5] was less than 20 nM throughout.

Consider `CC1CN(C(=O)c2cc(Cc3n[nH]c(=O)c4ccccc34)ccc2F)Cc2nnc(-c3cnn(C)c3)n21` (stereo not drawn) [Compound S14], for which the concentration for half-maximal inhibition (IC50) in data set [4] and in data set [5] was less than 20 nM each time.

As a reminder, the IC50 is the concentration that inhibits the measured activity by half. The bioavailability is the share of a dose that reaches the circulation, judged against a reference dose that is usually intravenous.

The record behind these values is patent US10597399B2, “Substituted triazolopiperazine PARP inhibitor, preparation method therefor and use thereof” (Shanghai Institute of Materia Medica, Chinese Academy of …, priority 2015, dated 2020).
